# Test results taken from patent US8697687B2, “Treating diseases mediated by blockade of the epithelial sodium channel with pyrazine-2-carboxamide derivatives” (Novartis AG, priority 2007, dated 2014).
# pIC50: −log10 of the molar value.
# Molecular target: T1, epithelial sodium channel (ENaC) (Homo sapiens, UniProt P37088+P51168+P51170)
# T1 construct: host or cells: primary Human Bronchial Epithelial cells (HBECs), air-liquid interface culture
# T1 sequence (P37088 1-669): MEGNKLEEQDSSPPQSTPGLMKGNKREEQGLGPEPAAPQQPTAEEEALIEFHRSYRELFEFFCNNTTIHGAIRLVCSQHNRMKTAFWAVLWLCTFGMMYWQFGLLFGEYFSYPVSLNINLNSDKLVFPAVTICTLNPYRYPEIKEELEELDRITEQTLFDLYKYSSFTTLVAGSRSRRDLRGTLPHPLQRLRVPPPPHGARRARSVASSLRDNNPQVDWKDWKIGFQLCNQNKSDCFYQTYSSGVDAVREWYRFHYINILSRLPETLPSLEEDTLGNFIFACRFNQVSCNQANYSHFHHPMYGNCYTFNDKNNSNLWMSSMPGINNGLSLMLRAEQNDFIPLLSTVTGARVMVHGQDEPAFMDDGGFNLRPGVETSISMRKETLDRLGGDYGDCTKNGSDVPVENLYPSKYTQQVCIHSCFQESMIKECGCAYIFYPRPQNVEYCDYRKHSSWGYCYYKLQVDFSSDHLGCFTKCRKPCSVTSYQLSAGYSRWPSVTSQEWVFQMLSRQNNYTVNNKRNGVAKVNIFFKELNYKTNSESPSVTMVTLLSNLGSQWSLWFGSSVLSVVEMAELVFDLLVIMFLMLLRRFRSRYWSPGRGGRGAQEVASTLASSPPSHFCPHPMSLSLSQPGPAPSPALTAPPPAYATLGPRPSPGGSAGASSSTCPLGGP
# T1 sequence (P51168 1-640): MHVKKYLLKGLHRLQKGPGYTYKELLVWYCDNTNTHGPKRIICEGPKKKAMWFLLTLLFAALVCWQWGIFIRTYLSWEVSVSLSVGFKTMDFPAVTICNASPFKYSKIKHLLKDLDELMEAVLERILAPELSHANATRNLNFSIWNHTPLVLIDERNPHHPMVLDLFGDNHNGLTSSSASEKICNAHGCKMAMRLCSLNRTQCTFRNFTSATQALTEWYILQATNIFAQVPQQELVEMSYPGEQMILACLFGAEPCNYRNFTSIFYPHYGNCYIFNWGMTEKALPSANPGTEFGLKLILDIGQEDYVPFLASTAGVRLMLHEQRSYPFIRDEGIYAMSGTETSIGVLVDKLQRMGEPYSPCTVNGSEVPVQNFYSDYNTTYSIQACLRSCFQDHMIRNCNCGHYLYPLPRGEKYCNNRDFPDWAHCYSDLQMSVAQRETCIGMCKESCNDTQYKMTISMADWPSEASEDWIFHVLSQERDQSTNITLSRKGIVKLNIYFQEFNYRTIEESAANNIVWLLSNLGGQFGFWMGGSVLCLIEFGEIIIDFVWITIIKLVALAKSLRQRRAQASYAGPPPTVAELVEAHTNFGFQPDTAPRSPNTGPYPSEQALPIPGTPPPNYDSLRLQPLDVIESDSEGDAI
# T1 sequence (P51170 1-649): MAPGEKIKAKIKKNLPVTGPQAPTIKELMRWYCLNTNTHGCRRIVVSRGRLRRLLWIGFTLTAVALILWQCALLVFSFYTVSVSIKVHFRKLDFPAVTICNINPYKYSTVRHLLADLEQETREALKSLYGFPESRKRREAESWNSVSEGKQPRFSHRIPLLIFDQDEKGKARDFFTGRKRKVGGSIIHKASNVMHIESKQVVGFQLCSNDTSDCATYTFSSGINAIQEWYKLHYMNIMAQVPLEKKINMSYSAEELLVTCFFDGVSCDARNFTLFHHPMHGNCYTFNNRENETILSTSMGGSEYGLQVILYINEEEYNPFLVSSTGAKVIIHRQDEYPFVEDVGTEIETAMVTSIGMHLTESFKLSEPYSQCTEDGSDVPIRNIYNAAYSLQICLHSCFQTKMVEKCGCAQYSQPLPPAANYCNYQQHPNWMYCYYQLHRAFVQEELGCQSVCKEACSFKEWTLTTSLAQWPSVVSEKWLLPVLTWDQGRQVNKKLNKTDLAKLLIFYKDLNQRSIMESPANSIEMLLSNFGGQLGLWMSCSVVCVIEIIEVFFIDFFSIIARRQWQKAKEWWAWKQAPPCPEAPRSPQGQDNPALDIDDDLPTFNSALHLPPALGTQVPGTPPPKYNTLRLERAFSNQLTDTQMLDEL
# Assay: Short circuit current (ISC) measurements in Human Bronchial Epithelial cells, inhibition of amiloride-sensitive ISC
# Assay type: cell-based
# Conditions: inhibition of the amiloride-sensitive ISC; Human Bronchial Epithelial cells (HBECs) at air-liquid interface; compound added to apical chamber; read-out: IC50
# Description: Compounds of formula (I) and their pharmaceutically acceptable salts, hereinafter referred to alternatively as “agents of the invention”, are useful as pharmaceuticals. In particular, the compounds have good ENaC blocker activity and may be tested in the following assays.
# Human Bronchial Epithelial cells (HBECs) (Cambrex) were cultured under air-liquid interface conditions to provide a well differentiated mucociliary phenotype.
# HBECs were cultured using a modification of the method described by Gray and colleagues (Gray et al., 1996). Cells were seeded in plastic T-162 flasks and were grown in bronchial epithelial cell growth medium (BEGM; Cambrex) supplemented with bovine pituitary extract (52 μg/mL), hydrocortisone (0.5 μg/mL), human recombinant epidermal growth factor (0.5 ng/mL), epinephrine (0.5 μg/mL), transferrin (10 μg/mL), insulin (5 μg/mL), retinoic acid (0.1 μg/mL), triiodothyronine ([…]), gentamycin (50 μg/mL) and amphotericin B (50 ng/mL). Medium was changed every 48 hours until cells were 90% confluent. Cells were then passaged and seeded (8.25×10^5 cells/insert) on polycarbonate Snapwell inserts (Costar) in differentiation media containing 50% DMEM in BEGM with the same supplements as above but without triiodothyronine and a final retinoic acid concentration of 50 nM (all-trans retinoic acid). Cells were maintained submerged for the first 7 days in culture, after which time they were exposed to an apical air interface for the remainder of the culture period. At this time, media was changed to DMEM:F12 media containing 2% v/v Ultroser G for the remainder of culture. Amphotericin B was removed from all media 3 feeds prior to use in the Using Chambers. Cells were used between days 7 and 21 after establishment of the apical-air interface. At all stages of culture, cells were maintained at 37° C. in 5% CO2 in an air incubator.
# Short Circuit Current (ISC) Measurements
# Snapwell inserts were mounted in Vertical Diffusion Chambers (Costar) and were bathed with continuously gassed Ringer solution (5% CO2 in O2; pH 7.4) maintained at 37° C. containing (in mM): 120 NaCl, 25 NaHCO3, 3.3 KH2PO4, 0.8 K2HPO4, 1.2 CaCl2, 1.2 MgCl2, and 10 glucose. The solution osmolarity was between 280 and 300 mOsmol/kg H2O for all physiological salt solutions used. Cells were voltage clamped to 0 mV (model EVC4000; WPI). RT was measured by applying a 1- or 2-mV pulse at 30-s intervals and calculating RT by Ohm's law. Data were recorded using a PowerLab workstation (ADInstruments).
# Test compounds were prepared as a 10 mM stock solution in DMSO (95%). Serial 3-fold dilutions were freshly prepared in an appropriate vehicle (distilled H2O or Ringers solution). The initial concentration was added to the apical chamber as a 1000× concentrate in 5 μL, resulting in a final 1× concentration the 5 mL volume of the Ussing chamber. Subsequent additions of compound were added in a 3.3 μL volume of the 1000× serially diluted stock solution. At the completion of the concentration-response experiment, amiloride (10 μM) was added into the apical chamber to enable the total amiloride-sensitive current to be measured. An amiloride control IC50 was established at the start of each experiment.
# Results are expressed as the mean % inhibition of the amiloride-sensitive ISC. Concentration-response curves were plotted and IC50 values generated using GraphPad Prism 3.02. Cell inserts were typically run in duplicate and the IC50 calculated on the mean % inhibition data.
row,SMILES,pIC50
1,"Nc1nc(N)c(C(=O)/N=C2/NC[C@H](CCCCNC(=O)OCc3ccccc3)N2)nc1Cl [Example 5, (4-{(S)-2-[(E)-3,5-Diamino-6-chloro-pyrazine-2-carbonylimino]-imidazolidin-4-yl}-butyl)-carbamic acid benzyl ester]",7.19
2,"Nc1nc(N)c(C(=O)N=C2NC3CCCCC3N2)nc1Cl (stereo not drawn) [Example 11, 3,5-Diamino-6-chloro-pyrazine-2-carboxylic acid (octahydro-benzoimidazol-2-ylidene)-amide]",5.77
3,"Nc1nc(N)c(C(=O)/N=C2/NC[C@@H](CCCc3ccc(OC[C@@H](O)CO)cc3)N2)nc1Cl [Example 19, 3,5-Diamino-6-chloro-pyrazine-2-carboxylic acid [(R)-4-{3-[4-((S)-2,3-dihydroxy-propoxy)-phenyl]-propyl}-imidazolidin-(2Z)-ylidene]-amide]",7.74
4,"Nc1nc(N)c(C(=O)/N=C2/NC[C@@H](CCCc3ccc(OCC(=O)N4CCOCC4)cc3)N2)nc1Cl [Example 23, 3,5-Diamino-6-chloro-pyrazine-2-carboxylic acid [(R)-4-{3-[4-(2-morpholin-4-yl-2-oxo-ethoxy)-phenyl]-propyl}-imidazolidin-(2Z)-ylidene]-amide]",7.47
5,CC(C)(CCOCc1ccccc1)C[C@H]1CN/C(=N/C(=O)c2nc(Cl)c(N)nc2N)N1 [Example 26],7.96
6,"Nc1nc(N)c(C(=O)/N=C2\NC[C@H](CCCNC(=O)NCc3ccccc3)N2)nc1Cl [Example 32, 3,5-Diamino-6-chloro-pyrazine-2-carboxylic acid [(S)-4-[3-(3-benzyl-ureido)-propyl]-imidazolidin-(2E)-ylidene]-amide]",7.74
7,"Nc1nc(N)c(C(=O)/N=C2\NC[C@H](CCCNC(=O)Cc3ccccc3)N2)nc1Cl [Example 34, 3,5-Diamino-6-chloro-pyrazine-2-carboxylic acid [(S)-4-(3-phenylacetylamino-propyl)-imidazolidin-(2E)-ylidene]-amide]",7.02
8,"Nc1nc(N)c(C(=O)/N=C2\NC[C@H](CCCCNS(=O)(=O)Cc3ccccc3)N2)nc1Cl [Example 35, 3,5-Diamino-6-chloro-pyrazine-2-carboxylic acid [(S)-4-(4-phenylmethanesulfonylamino-butyl)-imidazolidin-(2E)-ylidene]-amide]",7.51
9,"Cc1ccc(S(=O)(=O)N[C@@H](Cc2ccccc2)C(=O)N2CCC3(CC2)CN/C(=N\C(=O)c2nc(Cl)c(N)nc2N)N3)cc1 [Example 39, 3,5-Diamino-6-chloro-pyrazine-2-carboxylic acid [8-[(S)-3-phenyl-2-(toluene-4-sulfonylamino)-propionyl]-1,3,8-triaza-spiro[4.5]dec-(2E)-ylidene]-amide]",8.26
10,"Nc1nc(N)c(C(=O)/N=C2\NCC3(CCN(C(=O)c4cn(S(=O)(=O)c5ccccc5)c5ccccc45)CC3)N2)nc1Cl [Example 40, 3,5-Diamino-6-chloro-pyrazine-2-carboxylic acid [8-(1-benzenesulfonyl-1H-indole-3-carbonyl)-1,3,8-triaza-spiro[4.5]dec-(2E)-ylidene]-amide]",8.26
11,"CC(C)OCCCNS(=O)(=O)c1cccc(C(=O)N2CCC3(CC2)CN/C(=N\C(=O)c2nc(Cl)c(N)nc2N)N3)c1 [Example 41, 3,5-Diamino-6-chloro-pyrazine-2-carboxylic acid [8-[3-(3-isopropoxy-propylsulfamoyl)-benzoyl]-1,3,8-triaza-spiro[4.5]dec-(2E)-ylidene]-amide]",8.02
12,"Nc1nc(N)c(C(=O)/N=C2\NCC3(CCN(C(=O)Cc4nnc(-c5ccccc5)[nH]4)CC3)N2)nc1Cl [Example 42, 3,5-Diamino-6-chloro-pyrazine-2-carboxylic acid [8-[2-(5-phenyl-4H-[1,2,4]triazol-3-yl)-acetyl]-1,3,8-triaza-spiro[4.5]dec-(2E)-ylidene]-amide]",7.96
13,"CC(C)NC(=O)Nc1cccc(C(=O)N2CCC3(CC2)CN/C(=N\C(=O)c2nc(Cl)c(N)nc2N)N3)c1 [Example 43, 3,5-Diamino-6-chloro-pyrazine-2-carboxylic acid [8-[3-(3-isopropyl-ureido)-benzoyl]-1,3,8-triaza-spiro[4.5]dec-(2E)-ylidene]-amide]",7.89
14,"Nc1nc(N)c(C(=O)/N=C2\NCC3(CCN(C(=O)Cc4csc5ccccc45)CC3)N2)nc1Cl [Example 44, 3,5-Diamino-6-chloro-pyrazine-2-carboxylic acid [8-(2-Benzo[b]thiophen-3-yl-acetyl)-1,3,8-triaza-spiro[4.5]dec-(2E)-ylidene]-Amide]",7.53
15,"Nc1nc(N)c(C(=O)/N=C2\NCC3(CCN(C(=O)C4CC(=O)N(CCCn5cccc5)C4)CC3)N2)nc1Cl (stereo not drawn) [Example 45, 3,5-Diamino-6-chloro-pyrazine-2-carboxylic acid [8-[5-oxo-1-(3-pyrrol-1-yl-propyl)-pyrrolidine-3-carbonyl]-1,3,8-triaza-spiro[4.5]dec-(2E)-ylidene]-amide]",7.37
